Reference: PubChem BioAssay (NCI)
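Dose response: 5 concentrations. Exposure: 48 h. Format: 96-well plates. Endpoint: linear interpolation; highest concentration if not reached. GI50 = concentration required for 50% inhibition of growth. TGI: concentration producing complete growth inhibition.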 Where a SMILES comes first, the peptide text is derived from it. [ ]: non-standard residue; d: D form. NMeY = CN[C@@H](Cc1ccc(O)cc1)C(=O)O; dNMeF = CN[C@H](Cc1ccccc1)C(=O)O; Sar = CNCC(=O)O

Assays:
Assay in all cases: DTP human tumour cell line panel, 48 h
DU-145 prostate = system: DU-145 prostate
SR leukemia = system: SR leukemia
HOP-62 NSCLC = system: HOP-62 NSCLC
786-0 renal = system: 786-0 renal
SK-MEL-28 melanoma = system: SK-MEL-28 melanoma
MDA-MB-435 = system: MDA-MB-435
K-562 leukemia = system: K-562 leukemia
U251 CNS = system: U251 CNS
BT-549 breast = system: BT-549 breast
IGROV1 ovarian = system: IGROV1 ovarian
UACC-257 melanoma = system: UACC-257 melanoma
SF-539 CNS = system: SF-539 CNS
KM12 colon = system: KM12 colon
SK-MEL-2 melanoma = system: SK-MEL-2 melanoma
TK-10 renal = system: TK-10 renal
A549 NSCLC = system: A549 NSCLC
HS 578T breast = system: HS 578T breast
HCT-15 colon = system: HCT-15 colon
NCI-H23 lung = system: NCI-H23 lung
SF-295 CNS = system: SF-295 CNS
NCI-H522 lung = system: NCI-H522 lung
SK-MEL-5 melanoma = system: SK-MEL-5 melanoma
PC-3 prostate = system: PC-3 prostate
HT29 colon = system: HT29 colon
UACC-62 melanoma = system: UACC-62 melanoma
UO-31 renal = system: UO-31 renal
MOLT-4 leukemia = system: MOLT-4 leukemia
T-47D breast = system: T-47D breast
SF-268 CNS = system: SF-268 CNS
SN12C renal = system: SN12C renal
CCRF-CEM leukemia = system: CCRF-CEM leukemia
SNB-75 CNS = system: SNB-75 CNS
SW-620 colon = system: SW-620 colon
NCI/ADR-RES ovarian = system: NCI/ADR-RES ovarian
OVCAR-3 ovarian = system: OVCAR-3 ovarian
COLO 205 colon = system: COLO 205 colon
SK-OV-3 ovarian = system: SK-OV-3 ovarian
HCC-2998 colon = system: HCC-2998 colon
M14 melanoma = system: M14 melanoma
HL-60(TB) leukemia = system: HL-60(TB) leukemia
CAKI-1 renal = system: CAKI-1 renal
MDA-MB-231 breast = system: MDA-MB-231 breast
OVCAR-4 ovarian = system: OVCAR-4 ovarian
SNB-19 CNS = system: SNB-19 CNS
ACHN renal = system: ACHN renal
NCI-H226 lung = system: NCI-H226 lung
MCF7 breast = system: MCF7 breast
RPMI-8226 leukemia = system: RPMI-8226 leukemia
MALME-3M melanoma = system: MALME-3M melanoma
HOP-92 NSCLC = system: HOP-92 NSCLC
A498 renal = system: A498 renal
EKVX NSCLC = system: EKVX NSCLC
LOX IMVI melanoma = system: LOX IMVI melanoma
NCI-H460 lung = system: NCI-H460 lung
OVCAR-5 ovarian = system: OVCAR-5 ovarian
HCT-116 colon = system: HCT-116 colon
RXF 393 renal = system: RXF 393 renal
OVCAR-8 ovarian = system: OVCAR-8 ovarian

## Cc1cc2c3ccccc3ccc2[n+]2ccccc12
DU-145 prostate
  GI50: 9.02 µM
  TGI: 40.4 µM
SR leukemia
  GI50: 2.25 µM
  TGI: 12.9 µM
HOP-62 NSCLC
  GI50: 2.58 µM
  TGI: 11.7 µM
786-0 renal
  GI50: 6.11 µM
  TGI: > 69.1 µM
SK-MEL-28 melanoma
  GI50: 3.07 µM
  TGI: 12.7 µM
MDA-MB-435
  GI50: 8.56 µM
  TGI: 26.6 µM
K-562 leukemia
  GI50: 4.32 µM
  TGI: 32.8 µM
U251 CNS
  GI50: 1.06 µM
  TGI: 10.1 µM
BT-549 breast
  GI50: 1.4 µM
  TGI: 7.77 µM
IGROV1 ovarian
  GI50: 10 µM
  TGI: > 86.2 µM
UACC-257 melanoma
  GI50: 6.17 µM
  TGI: 27.5 µM
SF-539 CNS
  GI50: 3.47 µM
  TGI: 17 µM
KM12 colon
  GI50: 1.43 µM
  TGI: 11.6 µM
SK-MEL-2 melanoma
  GI50: 6.26 µM
  TGI: 22.7 µM
TK-10 renal
  GI50: 19.7 µM
  TGI: > 86.8 µM
A549 NSCLC
  GI50: 0.628 µM
  TGI: > 76.9 µM
HS 578T breast
  GI50: 2.6 µM
  TGI: 17.2 µM
HCT-15 colon
  GI50: 37.9 µM
  TGI: > 100 µM
NCI-H23 lung
  GI50: 2.57 µM
  TGI: 19.3 µM
SF-295 CNS
  GI50: 2.29 µM
  TGI: 12.7 µM
NCI-H522 lung
  GI50: 2.6 µM
  TGI: 13.1 µM
SK-MEL-5 melanoma
  GI50: 1.63 µM
  TGI: 3.78 µM
PC-3 prostate
  GI50: 3.38 µM
  TGI: 32.1 µM
HT29 colon
  GI50: 9.19 µM
  TGI: 41.1 µM
UACC-62 melanoma
  GI50: 6 µM
  TGI: 20.4 µM
UO-31 renal
  GI50: 3.73 µM
  TGI: > 100 µM
MOLT-4 leukemia
  GI50: 4.64 µM
  TGI: 28.2 µM
T-47D breast
  GI50: 1.86 µM
  TGI: 6.8 µM
SF-268 CNS
  GI50: 0.839 µM
  TGI: 3.92 µM
SN12C renal
  GI50: 1.4 µM
  TGI: 7.29 µM
CCRF-CEM leukemia
  GI50: 4.72 µM
  TGI: 35.2 µM
SNB-75 CNS
  GI50: 4.66 µM
  TGI: > 33.7 µM
SW-620 colon
  GI50: 2.99 µM
  TGI: 32.8 µM
NCI/ADR-RES ovarian
  GI50: > 100 µM
  TGI: > 100 µM
OVCAR-3 ovarian
  GI50: 2.28 µM
  TGI: 11.8 µM
COLO 205 colon
  GI50: 1.95 µM
  TGI: 8.31 µM
SK-OV-3 ovarian
  GI50: 10.7 µM
  TGI: 73.3 µM
HCC-2998 colon
  GI50: 4.71 µM
  TGI: 19.7 µM
M14 melanoma
  GI50: 6.53 µM
  TGI: 22.8 µM
HL-60(TB) leukemia
  GI50: 14.3 µM
  TGI: 46.3 µM
CAKI-1 renal
  GI50: > 28 µM
  TGI: > 100 µM
MDA-MB-231 breast
  GI50: 18.5 µM
  TGI: > 100 µM
OVCAR-4 ovarian
  GI50: 2.88 µM
  TGI: 14.8 µM
SNB-19 CNS
  GI50: 2.11 µM
  TGI: 8.72 µM
ACHN renal
  GI50: 29.4 µM
  TGI: > 100 µM
NCI-H226 lung
  GI50: 3.14 µM
  TGI: 23.7 µM
MCF7 breast
  GI50: 2.35 µM
  TGI: > 38.8 µM
RPMI-8226 leukemia
  GI50: 8.7 µM
  TGI: 80.3 µM
MALME-3M melanoma
  GI50: 0.657 µM
  TGI: 3.45 µM
HOP-92 NSCLC
  GI50: 2.69 µM
  TGI: 27.4 µM
A498 renal
  GI50: 5.43 µM
  TGI: > 100 µM
EKVX NSCLC
  GI50: 1.22 µM
  TGI: > 33.4 µM
LOX IMVI melanoma
  GI50: 21.5 µM
  TGI: 91.6 µM
NCI-H460 lung
  GI50: 8.81 µM
  TGI: 28.1 µM
OVCAR-5 ovarian
  GI50: 30.3 µM
  TGI: > 100 µM
HCT-116 colon
  GI50: 7.29 µM
  TGI: 44.4 µM
RXF 393 renal
  GI50: 14.3 µM
  TGI: > 84.4 µM
OVCAR-8 ovarian
  GI50: 2.43 µM
  TGI: 21.9 µM

## CC[C@H](C)[C@@H]1NC(=O)[C@H](Cc2ccc(O)cc2)N(C)C(=O)[C@H](Cc2ccccc2)NC(=O)CN(C)C(=O)[C@@H]2CCCN2C(=O)[C@@H](Cc2ccccc2)N(C)C(=O)[C@H](CC(C)C)NC1=O (cyclo(F[NMeY]IL[dNMeF]P[Sar]))
DU-145 prostate
  GI50: 0.205 µM
  TGI: 10.9 µM
SR leukemia
  GI50: 0.123 µM
  TGI: 6.28 µM
HOP-62 NSCLC
  GI50: 0.296 µM
  TGI: 5.84 µM
786-0 renal
  GI50: 0.467 µM
  TGI: 5.75 µM
SK-MEL-28 melanoma
  GI50: 0.194 µM
  TGI: 1.46 µM
MDA-MB-435
  GI50: 0.205 µM
  TGI: 1.7 µM
K-562 leukemia
  GI50: 0.262 µM
  TGI: 31.4 µM
U251 CNS
  GI50: 0.146 µM
  TGI: 7.26 µM
BT-549 breast
  GI50: 0.407 µM
  TGI: 4.51 µM
IGROV1 ovarian
  GI50: 0.21 µM
  TGI: 5.2 µM
UACC-257 melanoma
  GI50: 0.267 µM
  TGI: 3.05 µM
SF-539 CNS
  GI50: 0.287 µM
  TGI: 2.61 µM
KM12 colon
  GI50: 0.271 µM
  TGI: 5.48 µM
SK-MEL-2 melanoma
  GI50: 0.327 µM
  TGI: 1.91 µM
TK-10 renal
  GI50: 1.22 µM
  TGI: 9.65 µM
A549 NSCLC
  GI50: 0.301 µM
  TGI: 4.29 µM
HS 578T breast
  GI50: 0.137 µM
  TGI: 1.25 µM
HCT-15 colon
  GI50: 4.1 µM
  TGI: 19.8 µM
NCI-H23 lung
  GI50: 0.197 µM
  TGI: 5.95 µM
SF-295 CNS
  GI50: 0.428 µM
  TGI: 3.5 µM
NCI-H522 lung
  GI50: 0.287 µM
  TGI: 3.95 µM
SK-MEL-5 melanoma
  GI50: 0.485 µM
  TGI: 1.85 µM
PC-3 prostate
  GI50: 0.28 µM
  TGI: 6.21 µM
HT29 colon
  GI50: 0.243 µM
  TGI: 7.2 µM
UACC-62 melanoma
  GI50: 0.367 µM
  TGI: 2.75 µM
UO-31 renal
  GI50: 2.63 µM
  TGI: 13.1 µM
MOLT-4 leukemia
  GI50: 0.314 µM
  TGI: 10.6 µM
T-47D breast
  GI50: 0.157 µM
  TGI: 6.21 µM
SF-268 CNS
  GI50: 0.217 µM
  TGI: 6.94 µM
SN12C renal
  GI50: 0.139 µM
  TGI: 5.79 µM
CCRF-CEM leukemia
  GI50: 0.279 µM
  TGI: 11.7 µM
SNB-75 CNS
  GI50: 0.206 µM
  TGI: 2.78 µM
SW-620 colon
  GI50: 0.199 µM
  TGI: 5.32 µM
NCI/ADR-RES ovarian
  GI50: 14 µM
  TGI: > 100 µM
OVCAR-3 ovarian
  GI50: 0.248 µM
  TGI: 3.39 µM
COLO 205 colon
  GI50: 0.185 µM
  TGI: 3.3 µM
SK-OV-3 ovarian
  GI50: 0.446 µM
  TGI: 7.73 µM
HCC-2998 colon
  GI50: 0.39 µM
  TGI: 5.01 µM
M14 melanoma
  GI50: 0.371 µM
  TGI: 2.58 µM
HL-60(TB) leukemia
  GI50: 0.605 µM
  TGI: 3.3 µM
CAKI-1 renal
  GI50: 0.805 µM
  TGI: 11.3 µM
MDA-MB-231 breast
  GI50: 0.331 µM
  TGI: 4.28 µM
OVCAR-4 ovarian
  GI50: 0.306 µM
  TGI: 3.99 µM
SNB-19 CNS
  GI50: 0.146 µM
  TGI: 6.92 µM
ACHN renal
  GI50: 2.34 µM
  TGI: 11.6 µM
NCI-H226 lung
  GI50: 0.768 µM
  TGI: 8.18 µM
MCF7 breast
  GI50: 0.103 µM
  TGI: 2.69 µM
RPMI-8226 leukemia
  GI50: 0.229 µM
  TGI: 1.2 µM
MALME-3M melanoma
  GI50: 0.164 µM
  TGI: 1.81 µM
HOP-92 NSCLC
  GI50: 0.198 µM
  TGI: 4.83 µM
A498 renal
  GI50: 0.695 µM
  TGI: 6.11 µM
EKVX NSCLC
  GI50: 0.301 µM
  TGI: 6.47 µM
LOX IMVI melanoma
  GI50: 0.197 µM
  TGI: 1.89 µM
NCI-H460 lung
  GI50: 0.184 µM
  TGI: 1.94 µM
OVCAR-5 ovarian
  GI50: 0.299 µM
  TGI: 8.09 µM
HCT-116 colon
  GI50: 0.155 µM
  TGI: 10.5 µM
RXF 393 renal
  GI50: 0.519 µM
  TGI: 3.27 µM
OVCAR-8 ovarian
  GI50: 0.352 µM
  TGI: 12.8 µM
